This assay deals with T1, PTK2B (FAK2) (Homo sapiens, UniProt Q14289).
T1 construct: purchased Thermo Fisher Scientific (Life Technologies) SelectScreen
Put plainly: SelectScreen Z'LYTE. Format: biochemical. In short, it runs like this:
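Percent values come from Thermo SelectScreen profiling of NU5455, combining activity and binding assays. CSF1R was run in Z'LYTE format at Km app ATP, and CAMK1 in Adapta format with ATP listed at 10.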

In general, inhibition refers to the change of the read-out against control, counted positive when it falls. A higher inhibition goes with strong suppression.

T1 sequence (Q14289 whole entry): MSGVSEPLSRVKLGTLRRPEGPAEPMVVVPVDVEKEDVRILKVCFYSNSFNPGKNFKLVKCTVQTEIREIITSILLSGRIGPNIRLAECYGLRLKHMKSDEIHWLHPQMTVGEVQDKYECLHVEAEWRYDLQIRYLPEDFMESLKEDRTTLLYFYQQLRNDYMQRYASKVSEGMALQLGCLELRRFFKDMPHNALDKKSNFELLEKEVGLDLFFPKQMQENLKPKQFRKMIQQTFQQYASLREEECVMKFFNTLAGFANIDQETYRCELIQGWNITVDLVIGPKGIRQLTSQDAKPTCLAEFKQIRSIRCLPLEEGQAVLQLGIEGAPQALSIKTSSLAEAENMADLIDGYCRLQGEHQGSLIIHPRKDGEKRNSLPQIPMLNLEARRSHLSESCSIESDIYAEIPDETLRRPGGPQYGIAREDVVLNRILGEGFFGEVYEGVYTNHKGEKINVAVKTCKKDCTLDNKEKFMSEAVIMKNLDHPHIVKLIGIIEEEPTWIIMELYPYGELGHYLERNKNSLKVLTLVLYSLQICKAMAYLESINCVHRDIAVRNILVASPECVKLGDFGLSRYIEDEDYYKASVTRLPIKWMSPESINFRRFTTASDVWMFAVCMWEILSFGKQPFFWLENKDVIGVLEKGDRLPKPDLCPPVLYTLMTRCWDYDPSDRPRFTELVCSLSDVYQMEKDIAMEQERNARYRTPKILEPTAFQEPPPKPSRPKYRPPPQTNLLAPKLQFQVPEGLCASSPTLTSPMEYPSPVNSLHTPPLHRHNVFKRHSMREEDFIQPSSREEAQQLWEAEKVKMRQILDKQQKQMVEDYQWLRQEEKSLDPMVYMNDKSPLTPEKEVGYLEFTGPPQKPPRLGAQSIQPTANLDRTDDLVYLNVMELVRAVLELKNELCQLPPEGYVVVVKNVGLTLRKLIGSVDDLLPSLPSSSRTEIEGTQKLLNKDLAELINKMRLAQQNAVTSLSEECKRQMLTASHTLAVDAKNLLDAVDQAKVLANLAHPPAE

In turn, `CN(C(=O)CN1CCOCC1)c1ccc2sc3c(-c4cccc5c(=O)cc(N6CC7CCC(C6)O7)oc45)cccc3c2c1` [NU5455] displayed an inhibition at 1 µM of 4.2%.
